Results from patent US20230165251A1, “SUBSTITUTED TOLYL FUNGICIDES AND THEIR MIXTURES” (FMC Corporation, priority 2020, published 2023).
Where two headings read alike, the source gives them in different places.

What was measured:
Phakopsora pachyrhizi = assay: Test G: Compound 41 or 63 alone and in mixtures on soybean seedlings, Asian soybean rust, Colby synergy; assay type: in vivo; conditions: for pest or weed control at 0.346 ppm: Compound 41 0.346 ppm alone; for pest or weed control at 0.764 ppm: Compound 41 0.764 ppm alone; for pest or weed control at 0.403 ppm: Compound 63 0.403 ppm alone; for pest or weed control at 0.652 ppm: Compound 63 0.652 ppm alone
Source text: The general protocol for preparing test compositions for TEST G was as follows: Compound 41, Compound 63, N-(2,2,2-trifluoroethyl)-2-[[4-[5-(trifluoromethyl)-1,2,4-oxadiazol-3-yl]phenyl]methyl]-4-oxazolecarboxamide (b54.11a), ethyl 1-[[4-[[(1Z)-2-ethoxy-3,3,3-trifluoro-1-propen-1-yl]oxy]phenyl]methyl]-1H-pyrazole-4-carboxylate (b54.11c), ethyl 1-[[4-[[2-(trifluoromethyl)-1,3-dioxolan-2-yl]methoxy]phenyl]methyl]-1H-pyrazole-4-carboxylate (b54.11d), azoxystrobin, benzovindiflupyr, bixafen, chlorothalonil, cyproconazole, epoxiconazole, fenpropidin, fenpropimorph, fluindapyr, flutriafol, fluxapyroxad, inpyrfluxam, picoxystrobin, prothioconazole, pydiflumetofen, tebuconazole and trifloxystrobin were obtained as unformulated, technical-grade materials. Copper hydroxide and mancozeb was obtained as a formulated product marketed under the trademarks KOCIDE 3000 and MANZATE, respectively. Unformulated materials were first dissolved in acetone and then suspended at the desired concentration (in ppm) in acetone and purified water (50/50 mix by volume) containing 250 ppm of the surfactant Trem® 014 (polyhydric alcohol esters). Formulated materials were dispersed in sufficient water to give the desired concentration, and neither organic solvent nor surfactant was added to the suspension. The resulting test mixtures were then used in TEST G. The tests were run on four individual plants and the results reported as the mean average of the four plants.
The presence of a synergistic effect between two active ingredients was established with the aid of the Colby equation (see Colby, S. R. “Calculating Synergistic and Antagonistic Responses of Herbicide Combinations”, Weeds, (1967), 15, 20-22):
Using the method of Colby, the presence of a synergistic interaction between two active ingredients is established by first calculating the predicted activity, p, of the mixture based on activities of the two components applied alone. If p is lower than the experimentally established effect, synergism has occurred. In the equation above, A is the fungicidal activity in percentage control of one component applied alone at rate x. The B term is the fungicidal activity in percentage control of the second component applied at rate y. The equation estimates p, the expected fungicidal activity of the mixture of A at rate x with B at rate y if their effects are strictly additive and no interaction has occurred.
The test mixture was sprayed to the point of run-off on soybean seedlings. The following day the seedlings were inoculated with a spore suspension of Phakopsora pachyrhizi (the causal agent of Asian soybean rust) and incubated in a saturated atmosphere at 22° C. for 24 h and then moved to a growth chamber at 22° C. for 8 days, after which time visual disease ratings were made.
Results for TEST G are given below in Tables B-1 through J-1 for Compound 41, and Tables B-2 through J-2 for Compound 63. Each table corresponds to a set of evaluations performed together at the same time. In each table, a rating of 100 indicates 100% disease control and a rating of 0 indicates no disease control (relative to the controls). Columns labeled “Obsd” indicate the average of results observed from test run on four individual plants. Columns labeled “Exp” indicate the expected value for each treatment mixture using the Colby equation.

Alternaria solani = assay: Test F: preventive spray on tomato seedlings, tomato early blight; assay type: in vivo
Source text: General protocol for preparing test suspensions for Tests A-F: the test compounds were first dissolved in acetone in an amount equal to 3% of the final volume and then suspended at the desired concentration (in ppm) in acetone and purified water (50/50 mix by volume) containing 250 ppm of the surfactant PEG400 (polyhydric alcohol esters). The resulting test suspensions were then used in Tests A-F.
The test suspension was sprayed to the point of run-off on tomato seedlings. The following day the seedlings were inoculated with a spore suspension of Alternaria solani (the causal agent of tomato early blight) and incubated in a saturated atmosphere at 27° C. for 48 h, and then moved to a growth chamber at 20° C. for 3 days, after which time visual disease ratings were made.
A rating of 100 indicates 100% disease control and a rating of 0 indicates no disease control (relative to the controls). A dash (-) indicates the compound was not tested.

[1] = Phakopsora pachyrhizi, Table B-1, read-out: Test G Obsd
[2] = Phakopsora pachyrhizi, Table C-1, read-out: Test G Obsd
[3] = Phakopsora pachyrhizi, Table B-2, read-out: Test G Obsd
[4] = Phakopsora pachyrhizi, Table C-2, read-out: Test G Obsd

## Cn1cc(C(=O)Nc2cccc3c2[C@@H]2CC[C@H]3C2=C(Cl)Cl)c(C(F)F)n1 (racemic) [Benzovindiflupyr, benzovindiflupyr]
Phakopsora pachyrhizi; benzovindiflupyr alone 0.606 ppm
  Test G Obsd: 67%
Phakopsora pachyrhizi; benzovindiflupyr alone 0.980 ppm
  Test G Obsd: 67%

## Fc1ccc([C@]2(Cn3cncn3)O[C@H]2c2ccccc2Cl)cc1 (racemic) [Epoxiconazole, epoxiconazole]
Phakopsora pachyrhizi; Phakopsora pachyrhizi, epoxiconazole alone 46.795 ppm, read-out: Test G Obsd
  pest or weed control at 46.795 ppm: 23%
Phakopsora pachyrhizi; Phakopsora pachyrhizi, epoxiconazole alone 89.631 ppm, read-out: Test G Obsd
  pest or weed control at 89.631 ppm: 70%

## O=C(NCC(F)(F)F)c1coc(Cc2ccc(-c3noc(C(F)(F)F)n3)cc2)n1 [(b54.11a)]
Phakopsora pachyrhizi; Table B-1, (b54.11a) 0.471 ppm alone
  Test G Obsd: 59%
Phakopsora pachyrhizi; Table B-1, (b54.11a) 0.764 ppm alone
  Test G Obsd: 75%

## CO/C=C(/C(=O)OC)c1ccccc1Oc1cc(Oc2ccccc2C#N)ncn1 [Azoxystrobin, azoxystrobin]
Phakopsora pachyrhizi; azoxystrobin alone 95.873 ppm
  Test G Obsd: 70%
Phakopsora pachyrhizi; azoxystrobin alone 169.226 ppm
  Test G Obsd: 90%

## Cn1cc(C(=O)Nc2ccc(F)cc2-c2ccc(Cl)c(Cl)c2)c(C(F)F)n1 [Bixafen, bixafen]
Phakopsora pachyrhizi; Table C-1, bixafen 11.327 ppm alone
  Test G Obsd: 54%
Phakopsora pachyrhizi; Table C-1, bixafen 19.525 ppm alone
  Test G Obsd: 55%
Phakopsora pachyrhizi; Table C-2, bixafen 11.327 ppm alone
  Test G Obsd: 54%
Phakopsora pachyrhizi; Table C-2, bixafen 19.525 ppm alone
  Test G Obsd: 55%

## N#Cc1c(Cl)c(Cl)c(Cl)c(C#N)c1Cl [Chlorothalonil, chlorothalonil]
Phakopsora pachyrhizi; Phakopsora pachyrhizi, chlorothalonil alone 138.129 ppm, read-out: Test G Obsd
  pest or weed control at 138.129 ppm: 59%
Phakopsora pachyrhizi; Phakopsora pachyrhizi, chlorothalonil alone 222.081 ppm, read-out: Test G Obsd
  pest or weed control at 222.081 ppm: 85%

## COC(=O)NCc1cc(-c2ccn(-c3c(F)cc(Cl)cc3F)n2)ccc1C [Compound 6, methyl N-[[5-[1-(4-chloro-2,6-difluorophenyl)-1H-pyrazol-3-yl]-2-methylphenyl]methyl]carbamate]
Alternaria solani; Rate 10 ppm
  Test F disease control rating: 40%

## COC(=O)NCc1cc(-c2ccn(-c3c(F)cc(OC(F)F)cc3F)n2)ccc1C [Compound 15, methyl N-[[5-[1-[4-(difluoromethoxy)-2,6-difluorophenyl]-1H-pyrazol-3-yl]-2-methylphenyl]methyl]carbamate]
Alternaria solani; Rate 10 ppm
  Test F disease control rating: 0%

## COC(=O)NCc1cc(-c2ccn(-c3c(F)cc(C4CC4)cc3F)n2)ccc1C [Compound 41, methyl N-[[5-[1-(4-cyclopropyl-2,6-difluorophenyl)-1H-pyrazol-3-yl]-2-methylphenyl]methyl]carbamate]
Phakopsora pachyrhizi; [1]
  pest or weed control at 0.346 ppm: 29%
  pest or weed control at 0.764 ppm: 62%
Phakopsora pachyrhizi; [2]
  pest or weed control at 0.346 ppm: 19%
  pest or weed control at 0.764 ppm: 45%

## COC(=O)NCc1cc(-c2ccn(-c3c(F)cc(C(C)C)cc3F)n2)ccc1C [Compound 63, methyl N-[[5-[1-[2,6-difluoro-4-(1-methylethyl)phenyl]-1H-pyrazol-3-yl]-2-methylphenyl]methyl]carbamate]
Phakopsora pachyrhizi; [3]
  pest or weed control at 0.403 ppm: 34%
  pest or weed control at 0.652 ppm: 68%
Phakopsora pachyrhizi; [4]
  pest or weed control at 0.403 ppm: 15%
  pest or weed control at 0.652 ppm: 46%
Alternaria solani; Rate 10 ppm
  Test F disease control rating: 85%

## COC(=O)NCc1cc(-c2ccn(-c3c(F)cc(C(F)(F)F)cc3F)n2)ccc1C [Compound 64, methyl N-[[5-[1-[2,6-difluoro-4-(trifluoromethyl)phenyl]-1H-pyrazol-3-yl]-2-methylphenyl]methyl]carbamate]
Alternaria solani; Rate 10 ppm
  Test F disease control rating: 0%

## COC(=O)NCc1cc(-c2ncn(-c3c(F)cc([N+](=O)[O-])cc3F)n2)ccc1C [Compound 107]
Alternaria solani; Rate 250 ppm
  Test F disease control rating: 0%

## COC(=O)NCc1cc(-c2cnn(-c3c(F)cc([N+](=O)[O-])cc3F)n2)ccc1C [Compound 118, methyl N-[[5-[2-(2,6-difluoro-4-nitrophenyl)-2H-1,2,3-triazol-4-yl]-2-methylphenyl]methyl]carbamate]
Alternaria solani; Rate 250 ppm
  Test F disease control rating: 0%

## CC(C1CC1)C(O)(Cn1cncn1)c1ccc(Cl)cc1 (centres unmarked) [Cyproconazole, cyproconazole]
Phakopsora pachyrhizi; Phakopsora pachyrhizi, cyproconazole alone 37.333 ppm, read-out: Test G Obsd
  pest or weed control at 37.333 ppm: 44%
Phakopsora pachyrhizi; Phakopsora pachyrhizi, cyproconazole alone 64.883 ppm, read-out: Test G Obsd
  pest or weed control at 64.883 ppm: 68%

## CC(Cc1ccc(C(C)(C)C)cc1)CN1CCCCC1 (centres unmarked) [Fenpropidin, fenpropidin]
Phakopsora pachyrhizi; Phakopsora pachyrhizi, fenpropidin alone 78.393 ppm, read-out: Test G Obsd
  pest or weed control at 78.393 ppm: 45%
Phakopsora pachyrhizi; Phakopsora pachyrhizi, fenpropidin alone 161.740 ppm, read-out: Test G Obsd
  pest or weed control at 161.74 ppm: 68%

## CC(Cc1ccc(C(C)(C)C)cc1)CN1C[C@@H](C)O[C@@H](C)C1 (some centres unmarked) [Fenpropimorph, fenpropimorph]
Phakopsora pachyrhizi; Phakopsora pachyrhizi, fenpropimorph alone 242.823 ppm, read-out: Test G Obsd
  pest or weed control at 242.823 ppm: 33%
Phakopsora pachyrhizi; Phakopsora pachyrhizi, fenpropimorph alone 458.587 ppm, read-out: Test G Obsd
  pest or weed control at 458.587 ppm: 44%

## CC1CC(C)(C)c2c(F)ccc(NC(=O)c3cn(C)nc3C(F)F)c21 (centres unmarked) [Fluindapyr, fluindapyr]
Phakopsora pachyrhizi; Table C-1, fluindapyr 8.820 ppm alone
  Test G Obsd: 61%
Phakopsora pachyrhizi; Table C-1, fluindapyr 15.230 ppm alone
  Test G Obsd: 79%
Phakopsora pachyrhizi; Table C-2, fluindapyr 8.820 ppm alone
  Test G Obsd: 61%
Phakopsora pachyrhizi; Table C-2, fluindapyr 15.230 ppm alone
  Test G Obsd: 79%

## OC(Cn1cncn1)(c1ccc(F)cc1)c1ccccc1F (centres unmarked) [Flutriafol, flutriafol]
Phakopsora pachyrhizi; Phakopsora pachyrhizi, flutriafol alone 544.265 ppm, read-out: Test G Obsd
  pest or weed control at 544.265 ppm: 13%
Phakopsora pachyrhizi; Phakopsora pachyrhizi, flutriafol alone 1124.021 ppm, read-out: Test G Obsd
  pest or weed control at 1124.02 ppm: 52%

## Cn1cc(C(=O)Nc2ccccc2-c2cc(F)c(F)c(F)c2)c(C(F)F)n1 [Fluxapyroxad, fluxapyroxad]
Phakopsora pachyrhizi; Table C-1, fluxapyroxad 2.757 ppm alone
  Test G Obsd: 19%
Phakopsora pachyrhizi; Table C-1, fluxapyroxad 4.748 ppm alone
  Test G Obsd: 52%
Phakopsora pachyrhizi; Table C-2, fluxapyroxad 2.757 ppm alone
  Test G Obsd: 19%
Phakopsora pachyrhizi; Table C-2, fluxapyroxad 4.748 ppm alone
  Test G Obsd: 52%

## C[C@@H]1CC(C)(C)c2cccc(NC(=O)c3cn(C)nc3C(F)F)c21 [Inpyrfluxam, inpyrfluxam]
Phakopsora pachyrhizi; inpyrfluxam alone 0.448 ppm
  Test G Obsd: 56%
Phakopsora pachyrhizi; inpyrfluxam alone 1.059 ppm
  Test G Obsd: 79%

## CO/C=C(/C(=O)OC)c1ccccc1COc1cccc(C(F)(F)F)n1 [Picoxystrobin, picoxystrobin]
Phakopsora pachyrhizi; picoxystrobin alone 20.596 ppm
  Test G Obsd: 63%
Phakopsora pachyrhizi; picoxystrobin alone 33.856 ppm
  Test G Obsd: 79%
Phakopsora pachyrhizi; picoxystrobin alone 33.865 ppm
  Test G Obsd: 79%

## OC(Cc1ccccc1Cl)(Cn1nc[nH]c1=S)C1(Cl)CC1 (centres unmarked) [Prothioconazole, prothioconazole]
Phakopsora pachyrhizi; Phakopsora pachyrhizi, prothioconazole alone 10.165 ppm, read-out: Test G Obsd
  pest or weed control at 10.165 ppm: 7%
Phakopsora pachyrhizi; Phakopsora pachyrhizi, prothioconazole alone 16.339 ppm, read-out: Test G Obsd
  pest or weed control at 16.339 ppm: 65%

## CON(C(=O)c1cn(C)nc1C(F)F)C(C)Cc1c(Cl)cc(Cl)cc1Cl (centres unmarked) [Pydiflumetofen, pydiflumetofen]
Phakopsora pachyrhizi; pydiflumetofen alone 41.364 ppm
  Test G Obsd: 49%
Phakopsora pachyrhizi; pydiflumetofen alone 70.950 ppm
  Test G Obsd: 0%
Phakopsora pachyrhizi; pydiflumetofen alone 128.793 ppm
  Test G Obsd: 36%
Phakopsora pachyrhizi; pydiflumetofen alone 135.850 ppm
  Test G Obsd: 73%

## CC(C)(C)C(O)(CCc1ccc(Cl)cc1)Cn1cncn1 (centres unmarked) [Tebuconazole, tebuconazole]
Phakopsora pachyrhizi; Phakopsora pachyrhizi, tebuconazole alone 486.921 ppm, read-out: Test G Obsd
  pest or weed control at 486.921 ppm: 30%
Phakopsora pachyrhizi; Phakopsora pachyrhizi, tebuconazole alone 841.166 ppm, read-out: Test G Obsd
  pest or weed control at 841.166 ppm: 55%

## CON=C(C(=O)OC)c1ccccc1CON=C(C)c1cccc(C(F)(F)F)c1 [Trifloxystrobin, trifloxystrobin]
Phakopsora pachyrhizi; Phakopsora pachyrhizi, trifloxystrobin alone 20.511 ppm, read-out: Test G Obsd
  pest or weed control at 20.511 ppm: 46%
Phakopsora pachyrhizi; Phakopsora pachyrhizi, trifloxystrobin alone 35.310 ppm, read-out: Test G Obsd
  pest or weed control at 35.31 ppm: 76%
